According to patent US9469878B2, “Methods of treating cancer comprising targeting NQO1” (The Board of Regents of the University of Texas System, priority 2010, dated 2016):

Assays:
HTB122 = system: HTB122; design: LD50 β-Lap + CAT: unit not given beside the values
Procedure: (§1) Cells were cultured and treated as described above. […] Experiments were repeated at least three times, and data expressed as relative survival (treated/control×100%) means±SEM. […] The multi-target model was used to describe the shape of relative survival curves. In this model, a final slope (D0) resulting from multiple-event killing and quasithreshold (Dq) doses were used to represent the size or width of the shoulder of the curve. The extrapolation number (n) is also a measure of the width of the shoulder. The three parameters, n, Do, and Dq were related by the expression: loge n=Dq/Do.
(§2) Cells were treated with β-lap with or without dicoumarol for 2 h. […] Data were expressed as relative survival (treated/control×100%). Experiments were repeated at least three times, and data expressed as relative survival means±SEM. […] Human mammary epithelial cells were plated in 48 well dishes in growth media containing a 50:50 mixture of MGEM/DME:F12 medium supplemented with insulin, human epidermal growth factor and hydrocortisone.

HTB24 = system: HTB24; design: LD50 β-Lap + CAT: unit not given beside the values
Procedure: as §1, §2

H2185 = system: H2185; design: LD50 β-Lap + CAT: unit not given beside the values
Procedure: as §1, §2

HCC1937 = system: HCC1937; design: LD50 β-Lap + CAT: unit not given beside the values
Procedure: as §1, §2

[1] = target: T1, NQO1 in 231-NQ+ cell extracts (Homo sapiens, UniProt P15559); experiment: Oxygen consumption in S9 cell extracts; type: biochemical; details: in 4 h, 231-NQ+ versus 231-NQ− cell extracts
T1 construct: expressed in transfected cells; host or cells: MDA-MB-231 (231-NQ+), S9 supernatant

[2] = system: wild-type *1/*1 non-small cell lung cancer (NSCLC) cell lines; experiment: LD50 responses of NSCLC cell lines treated with β-Lap; type: cell-based, human; details: all of the wild-type *1/*1 NSCLC cells, 2 h treatment, 7 days later
Procedure: FIG. 16 depicts NQO1 levels predict response to NQO1 bioactivatable therapies. In (a) LD50 responses of non-small cell lung cancer (NSCLC) cell lines treated with β-Lap for 2 h and harvester 7 days later. LD50 responses were plotted as a function of NQO1 enzymatic levels. The notations, *1/*1 and *2/*2 represent the NQO1 status of each cell line as homozygous wild type (*1/*1) or homozygous polymorphic (*2/*2) genotypes. Note that all heterozygote cells containing one wild-type allele (*1) are wild-type, phenotypically, for NQO1 expression, such that only homozygous *2/*2 or 3/3 are considered non-responsive to NQO1 bioactivatable drugs. Note the high resistance of H596 and H2862 cell lines to β-lapachone compared to all of the wild-type *1/*1 cells with LD50 values less than 5 μM. Note also that *3/*3 SNPs in NQO1 are far more rare than *2/*2 single point mutations in NQO1. In (b), Kaplan-Meier survival curve of mice bearing orthotopic lung tumors implanted with *1/*1 A549 cells. Mice were treated intravenously (5 doses every other day) with β-lap-HPβ-CD or vehicle alone (HPβ-CD). Similar studies with *2/*2 or *3/*3 tumors were performed and these tumors were non-responsive to β-lapachone or other NQO1 bioactivatable drug therapies.

A549 cells = experiment: as above; type: cell-based, human; details: NQO1 enzyme activities ≧50 units, β-Lap 2 h, 7 days later
Procedure: (§3) LD50 responses were plotted as a function of NQO1 enzymatic levels. The notations, *1/*1 and *2/*2 represent the NQO1 status of each cell line as homozygous wild type (*1/*1) or homozygous polymorphic (*2/*2) genotypes. […] In (b), Kaplan-Meier survival curve of mice bearing orthotopic lung tumors implanted with *1/*1 A549 cells. Mice were treated intravenously (5 doses every other day) with β-lap-HPβ-CD or vehicle alone (HPβ-CD).

H441 cells = experiment: as above; type: cell-based, human; details: NQO1 enzyme activities ≧50 units, β-Lap 2 h, 7 days later
Procedure: as §3

T1 sequence (P15559 whole entry): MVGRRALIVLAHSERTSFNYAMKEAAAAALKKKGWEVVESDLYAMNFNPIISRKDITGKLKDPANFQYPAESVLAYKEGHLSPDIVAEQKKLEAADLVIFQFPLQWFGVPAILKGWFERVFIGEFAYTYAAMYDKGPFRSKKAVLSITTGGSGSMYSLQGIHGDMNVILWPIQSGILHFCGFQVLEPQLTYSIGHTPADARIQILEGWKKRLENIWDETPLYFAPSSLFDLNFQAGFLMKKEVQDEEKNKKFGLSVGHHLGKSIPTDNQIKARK

`CC1(C)CCC2=C(O1)c1ccccc1C(=O)C2=O` [β-Lap, 3,4-dihydro-2,2-dimethyl-2H-naphtho[1,2-b]pyran-5,6-dione] was tested. Which “LD50 β-Lap + CAT” value (HTB122) did it give?
The value was 2.8.

And the “LD50 p-Lap + DIC” value (HTB122; human)?
The value was 5.5.

What about the “LD50 β-Lap” value (HTB122; human) of the same compound?
Its value is 1.5.

What about the “LD50 β-Lap + CAT” value (HTB24) of the same compound?
The value was 3.5.

And the “LD50 p-Lap + DIC” value (HTB24; human)?
The value was 6.2.

What about the “LD50 β-Lap” value (HTB24; human) of the same compound?
The value was 1.5.

And the “LD50 β-Lap + CAT” value (H2185)?
The value was 2.6.

And the “LD50 p-Lap + DIC” value (H2185; human)?
The value was 6.4.

What about the “LD50 β-Lap” value (H2185; human) of the same compound?
The value was 1.3.

And the “LD50 β-Lap + CAT” value (HCC1937)?
The value was 3.4.

And the “LD50 p-Lap + DIC” value (HCC1937; human)?
Its value is 5.0.

What about the “LD50 β-Lap” value (HCC1937; human) of the same compound?
The value was 2.2.

And the “Increase of O2 consumption” value [1]?
The value was ~40 fold.

And the LD50 [2]?
Its LD50 is “less than 5 μM”.

What about the LD50 (A549 cells) of the same compound?
Its LD50 is 2.5 µM.

What about the LD50 (H441 cells) of the same compound?
Its LD50 is 1.5 µM.
